Tests used:
[1] = test system: patients suffering from advanced CHF; details: in combination with standard CHF therapy; cited from earlier work
[2] = biological target: T1, human MR (Homo sapiens, UniProt P08235); experiment: Mineralocorticoid Receptor Binding Assay (Method 1), [3H]-aldosterone competition; details: 0.5 nM [3H]-aldosterone, human MR expressed in Sf9 cells
T1 construct: The full length human MR gene is cloned from a human kidney or human brain cDNA library; inferred from own knowledge of the pAcHLT vector (N); made in house; host or cells: Sf9 insect cells (baculovirus)
T1 sequence (P08235 1-984): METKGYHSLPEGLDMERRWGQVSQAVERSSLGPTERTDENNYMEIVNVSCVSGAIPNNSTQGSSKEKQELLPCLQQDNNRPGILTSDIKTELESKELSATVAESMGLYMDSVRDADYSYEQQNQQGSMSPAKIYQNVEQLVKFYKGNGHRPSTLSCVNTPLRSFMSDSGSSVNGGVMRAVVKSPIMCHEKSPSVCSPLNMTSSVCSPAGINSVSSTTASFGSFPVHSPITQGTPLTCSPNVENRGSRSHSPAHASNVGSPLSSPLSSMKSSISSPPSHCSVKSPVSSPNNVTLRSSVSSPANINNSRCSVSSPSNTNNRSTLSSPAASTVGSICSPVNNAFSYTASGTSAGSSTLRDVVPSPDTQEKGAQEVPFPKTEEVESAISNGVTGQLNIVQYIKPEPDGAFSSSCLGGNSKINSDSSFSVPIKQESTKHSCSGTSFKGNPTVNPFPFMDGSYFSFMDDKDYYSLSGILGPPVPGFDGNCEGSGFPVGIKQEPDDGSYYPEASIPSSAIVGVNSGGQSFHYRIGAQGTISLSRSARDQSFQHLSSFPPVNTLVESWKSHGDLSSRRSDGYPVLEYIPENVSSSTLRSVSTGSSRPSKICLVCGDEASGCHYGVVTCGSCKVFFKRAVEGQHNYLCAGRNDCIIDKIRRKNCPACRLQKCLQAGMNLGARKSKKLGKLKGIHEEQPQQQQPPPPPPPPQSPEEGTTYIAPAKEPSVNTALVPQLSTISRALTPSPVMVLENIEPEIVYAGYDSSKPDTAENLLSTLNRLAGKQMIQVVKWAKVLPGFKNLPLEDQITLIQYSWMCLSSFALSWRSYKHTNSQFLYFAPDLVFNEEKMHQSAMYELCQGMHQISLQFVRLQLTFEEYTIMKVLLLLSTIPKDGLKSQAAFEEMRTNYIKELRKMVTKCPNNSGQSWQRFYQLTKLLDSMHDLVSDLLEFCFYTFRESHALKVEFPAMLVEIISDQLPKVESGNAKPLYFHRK
Outline: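 Full-length human MR expressed in Sf9 cells via baculovirus; lysate supernatant (about 20-25 μg protein) incubated with 0.5 nM [3H]-aldosterone and test compound for about 16 h at 4° C. Buffer was Tris/molybdate/phosphate/pyrophosphate with 10% glycerol, pH 7.5; filter-bound complex counted by scintillation.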

[3] = biological target: T2, human GR (glucocorticoid receptor) (Homo sapiens, UniProt P04150); experiment: Alternative Binding Assay Protocol (Method 2), 293-GR lysate, 3H-dexamethasone competition; details: 0.3 nM 3H-dexamethasone
T2 construct: expressed in transfected cells; host or cells: 293 cells
T2 sequence (P04150 1-777): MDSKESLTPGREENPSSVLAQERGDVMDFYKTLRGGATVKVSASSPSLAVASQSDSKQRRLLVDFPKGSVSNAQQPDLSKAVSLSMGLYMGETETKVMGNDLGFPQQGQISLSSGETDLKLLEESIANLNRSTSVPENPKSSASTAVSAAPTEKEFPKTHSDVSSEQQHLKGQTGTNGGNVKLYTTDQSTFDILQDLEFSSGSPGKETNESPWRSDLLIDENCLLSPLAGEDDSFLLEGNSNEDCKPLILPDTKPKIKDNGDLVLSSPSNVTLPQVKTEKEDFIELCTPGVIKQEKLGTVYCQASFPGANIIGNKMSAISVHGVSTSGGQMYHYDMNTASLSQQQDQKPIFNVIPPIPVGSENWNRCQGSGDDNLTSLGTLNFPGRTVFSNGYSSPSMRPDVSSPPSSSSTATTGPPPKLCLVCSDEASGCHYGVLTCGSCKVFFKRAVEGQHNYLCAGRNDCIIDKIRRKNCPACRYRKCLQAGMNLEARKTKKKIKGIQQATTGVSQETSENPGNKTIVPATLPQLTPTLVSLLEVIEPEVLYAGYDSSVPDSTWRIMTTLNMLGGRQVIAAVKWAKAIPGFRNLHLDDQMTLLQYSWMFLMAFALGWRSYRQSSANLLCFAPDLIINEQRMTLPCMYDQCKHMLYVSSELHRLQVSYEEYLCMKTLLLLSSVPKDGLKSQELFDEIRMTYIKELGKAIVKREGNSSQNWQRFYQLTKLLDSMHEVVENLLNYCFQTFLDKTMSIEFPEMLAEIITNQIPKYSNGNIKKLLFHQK
Experimental: Alternative Binding Assay Protocol for MR, GR, AR, and PR (Method 2):
Cell lysates from 293 cells overexpressing human GR (glucocorticoid receptor), AR (androgen receptor), MR (mineralocorticoid receptor) or PR (progesterone-receptor) are used for competition binding assays to determine Ki values for test compounds. […] Competing compounds are added at various concentraions in half-log increments. Non-specific binding is determined in the presence of 500 nM dexamethasone for GR binding, 500 nM aldosterone for MR binding, or 500 nM methyltrienolone for AR and PR binding. The binding reaction (140 μl) is incubated for overnight at 4° C., then 70 μl of cold charcoal-dextran buffer (containing per 50 ml of assay buffer, 0.75 g of charcoal and 0.25 g of dextran) is added to each reaction. Plates are mixed 8 minutes on an orbital shaker at 4° C. Plates are then centrifuged at 3,000 rpm at 4° C. for 10 minutes. An aliquot of 120 μl of the mix is transferred to another 96-well plate and 175 μl of Wallac Optiphase “Hisafe 3” scintillation fluid is added to each well. Plates are sealed and shaken vigorously on an orbital shaker. After an incubation of 2 hrs, plates are read in a Wallac Microbeta counter. […] The Kd for ^3H-dexamethasone for GR binding, ^3H-methyltrienolone for AR binding, ^3H-aldosterone for MR binding, or ^3H-methyltrienolone for PR binding, is determined by saturation binding. The IC50 values for compounds are converted to Ki using Cheng-Prusoff equation and the Kd determined by saturation binding assay.

| SMILES | reduced cardiac related mortality [1] [%] | reduced frequency of hospitalization [1] [%] | melting point | Ki [2] [nM] | Ki [3] [nM] |
| --- | --- | --- | --- | --- | --- |
| CC(=O)S[C@@H]1CC2=CC(=O)CC[C@]2(C)[C@H]2CC[C@@]3(C)[C@@H](CC[C@@]34CCC(=O)O4)[C@H]12 [spironolactone] | 30 | 35 | – | – | – |
| CCC(CC)(c1ccc2sccc2c1)c1c[nH]c2c(NS(C)(=O)=O)cccc12 [Example 135, N-[3-(1-Benzo[b]thiophen-5-yl-1-ethyl-propyl)-1H-indol-7-yl]-methanesulfonamide] | – | – | 85 to 95 °C | < 500 | < 500 |
| CCC(CC)(c1ccc2sc(N)nc2c1)c1c[nH]c2c(NS(C)(=O)=O)cccc12 [Example 141, N-{3-[1-(2-Amino-benzothiazol-5-yl)-1-ethyl-propyl]-1H-indol-7-yl}-methanesulfonamide] | – | – | 260 to 263 °C (dec.) | < 500 | < 500 |
| CCC(CC)(c1ccc2ncoc2c1)c1c[nH]c2c(NS(C)(=O)=O)cccc12 [Example 137, N-[3-(1-Benzooxazol-6-yl-1-ethyl-propyl)-1H-indol-7-yl]-methanesulfonamide] | – | – | 211 to 213 °C | < 500 | < 500 |
| CCC(CC)(c1ccc2[nH]cnc2c1)c1c[nH]c2c(NS(C)(=O)=O)cccc12 [Example 134, N-{3-[1-(1H-Benzoimidazol-5-yl)-1-ethyl-propyl]-1H-indol-7-yl}-methanesulfonamide] | – | – | 150 to 165 °C | < 500 | < 500 |
| CCC(CC)(c1ccc2nc(Cl)sc2c1)c1c[nH]c2c(NS(C)(=O)=O)cccc12 [Example 148, N-{3-[1-(2-Chloro-benzothiazol-6-yl)-1-ethyl-propyl]-1H-indol-7-yl}-methanesulfonamide] | – | – | 180 to 190 °C | < 500 | < 500 |
| CCC(CC)(c1ccc2[nH]nnc2c1)c1c[nH]c2c(NS(C)(=O)=O)cccc12 [Example 153, N-{3-[1-(3H-Benzotriazol-5-yl)-1-ethyl-propyl]-1H-indol-7-yl}-methanesulfonamide] | – | – | 165 to 172 °C | < 500 | < 500 |

— patent publication US20060235222A1, “Indole-derivative modulators of steroid hormone nuclear receptors” (ELI LILLY AND COMPANY, priority 2003, published 2006)
